The numbers were not newly measured in patent US11220530B2, “Nanospheres of SEC14-like proteins and cognate ligands” (UNIVERSITÄT BERN, priority 2016, dated 2022), which cites them from elsewhere.

Molecules are shown by their SMILES.

The series concerns the target Cellular retinaldehyde-binding protein (CRALBP) (Bos taurus, UniProt P10123). The following applies: for Kd: cited from Saari and Bredberg, J Biol Chem 1987, read-out: Kd (affinity for CRALBP).

Cellular retinaldehyde-binding protein (CRALBP), sequence (P10123 whole entry): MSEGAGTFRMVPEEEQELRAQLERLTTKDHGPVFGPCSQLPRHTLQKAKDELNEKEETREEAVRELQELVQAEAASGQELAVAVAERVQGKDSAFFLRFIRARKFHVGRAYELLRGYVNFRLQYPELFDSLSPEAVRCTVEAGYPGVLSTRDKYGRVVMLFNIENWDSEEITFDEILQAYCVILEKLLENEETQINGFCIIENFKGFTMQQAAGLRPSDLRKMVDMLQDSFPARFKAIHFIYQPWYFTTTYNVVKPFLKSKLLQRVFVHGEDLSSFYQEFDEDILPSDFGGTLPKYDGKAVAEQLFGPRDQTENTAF

In general, Kd refers to the free concentration of one partner at which half of the binding sites on the other are occupied at equilibrium, for simple one-to-one binding. For `CC1=C(/C=C/C(C)=C\C=C\C(C)=C\C=O)C(C)(C)CCC1` [9-cis-retinal], the dissociation constant (Kd) is 53 nM.

Turning to `CC1=C(/C=C/C(C)=C/C=C/C(C)=C/C=O)C(C)(C)CCC1` [11-cis-retinal], the Kd was 20 nM.

Regarding `CC1=C(/C=C/C(C)=C/C=C\C(C)=C\CO)C(C)(C)CCC1` [11-cis-retinol], the Kd is 60 nM. With `CC1=C(/C=C/C(C)=C/C=C/C(C)=C/C=O)C(C)(C)CCC1` [13-cis], for the setting “same cited study”, the “binding to CRALBP” value is “does not bind”.
